Measurements: US20090124675A1, “INHIBITORS OF ANTI-APOPTOTIC PROTEINS” (Burnham Institute for Medical Research, priority 2007, published 2009)
“Also recorded” adds a separate entry of the source.

Legend:
[1] = molecular target: T1, BCL-XL (Homo sapiens, UniProt Q07817); assay: Inhibition evaluated by measuring dissociation constant (Kd); type: binding
T1 construct: Recombinant full length BCL-XL was produced; poly-His (N); made in house; host or cells: E. coli BL21
Description: (§1) Predicted binding mode of some compounds of the present invention to a BCL-2 protein is illustrated by FIG. 1 (binding of compound 11 shown below), FIG. 2A (binding of compound 1 shown above), and FIG. 2B (binding of compound 2 shown above). […] FIG. 4 and FIG. 5 show such NMR data for compounds 6 and 7 shown above. The inhibition was also evaluated by measuring dissociation constant (Kd) values for some compounds of the invention.

[2] = system: B6BCL-2 transgenic mouse; assay: In vivo test in the B6BCL-2 transgenic mouse; details: for In vivo activity compared with known compounds / Order of potency in terms of in vivo efficacy: B6BCL-2 transgenic mouse; for Order of potency in terms of in vivo efficacy / Order of severity of toxic effect: rank order; for Order of severity of toxic effect: diminishing severity
Description: Some compounds of the invention were also tested in vivo in the B6BCL-2 transgenic mouse. […] Gossypol is described, e.g., in U.S. Pat. No. 7,186,708. Apogossypol is described, e.g., in Meyers A. I.; Willemsen J. J., Tetrahedron Letters, vol. 37, No. 6, February, […], pp. 791-792.

[3] = molecular target: T1, BCL-XL; assay: NMR spectroscopy binding test (1D 1H / 2D [15N,1H]-HSQC); details: NMR data, FIGS. 3-5; negative control
Description: as §1
For all NMR experiments, BCL-xL was exchanged into 50 mM phosphate buffer at pH 7.5 and measurements were performed at 30° C. 2D [^15N,^1H]-HSQC spectra for BCL-xL were measured with 0.5 mM samples of ^15N-labeled protein. All experiments were performed with a 600 MHz Bruker Avance spectrometer, both equipped with either a TXI probe or a TCI cryoprobe. In all experiments, dephasing of residual water signals was obtained with a WATERGATE sequence. In order to test the ability of test compounds to bind to Bcl-xL, a 25 μM sample of the protein was prepared and 1D ^1H NMR spectra were collected in absence and presence of test compounds. By observing the aliphatic region of the spectra, binding can be readily detected in these simple experiments due to chemical shift changes in active site methyl groups of Ile, Leu, Thr, Val or Ala (region between 0.8 and 0.3 ppm).

[4] = system: Triplet B6Bcl2 mice; assay: Delivery of Epalrestat in vivo, spleen weight in Triplet B6Bcl2 mice
Description: Epalrestat (compound 11) was given to Triplet B6Bcl2 mice at a daily dose of 0.12 mmol/kg for 3 days (i.e., QDX3) through oral gavage. […] Both Epalrestat and the negative control were dissolved in PBS.
After 3 days, the spleens of the animals were removed.

T1 sequence (Q07817 whole entry, species assumed): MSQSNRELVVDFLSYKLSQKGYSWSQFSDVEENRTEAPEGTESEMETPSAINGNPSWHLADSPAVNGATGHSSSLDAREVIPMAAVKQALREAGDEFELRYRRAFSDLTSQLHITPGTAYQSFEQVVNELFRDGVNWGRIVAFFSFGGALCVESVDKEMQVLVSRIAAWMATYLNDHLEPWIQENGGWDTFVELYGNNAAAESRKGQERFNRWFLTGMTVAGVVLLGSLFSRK

| Molecule | Kd [1] [µM] | In vivo activity compared with known compounds [2] | Order of potency in terms of in vivo efficacy [2] | Order of severity of toxic effect [2] | further results |
| --- | --- | --- | --- | --- | --- |
| CC(=C\c1ccccc1)/C=C1/SC(=S)N(C(C(=O)O)c2ccccc2)C1=O (stereo not shown) [Compound 1, 2-[5-(2-methyl-3-phenylallylidene)-4-oxo-2-thioxothiazolidin-3-yl]-2-phenylacetic acid] | 1 |  |  |  |  |
| CC(=C\c1ccccc1)/C=C1/SC(=S)N(C(C(=O)O)C(C)C)C1=O (stereo not shown) [Compound 2, 3-methyl-2-[5-(2-methyl-3-phenylallylidene)-4-oxo-2-thioxothiazolidin-3-yl]butanoic acid] | 5.7 |  |  |  |  |
| COc1cc2cc(C=C3SC(=S)N(C(C(=O)O)C(C)C)C3=O)c(C)cc2c(C(C)C)c1OC (stereo not shown) [Compound 3, 2-[5-(1-isopropyl-2,3-dimethoxy-7-methylnaphthalen-6-yl-methylene)-4-oxo-2-thioxothiazolidin-3-yl]-3-methylbutanoic acid] |  | equal to, or better than, known compounds gossypol and apogossypol | compound 11>compound 5>compound 3=apogossypol=gossypol | gossypol>>>apogossypol>compound 5=compound 3=compound 11 |  |
| COc1cc2c(cc1OC)C(Br)=C(C=C1SC(=S)N(C(C(=O)O)C(C)C)C1=O)CC2 (stereo not shown) [Compound 5, 2-[5-((4-bromo-1,2-dihydro-6,7-dimethoxynaphthalen-3-yl)methylene)-4-oxo-2-thioxothiazolidin-3-yl]-3-methylbutanoic acid] |  | equal to, or better than, known compounds gossypol and apogossypol | compound 11>compound 5>compound 3=apogossypol=gossypol | gossypol>>>apogossypol>compound 5=compound 3=compound 11 |  |
| CC(C)C(C(=O)O)N1C(=O)C(=CC2=C(Br)c3cc(O)c(O)cc3CC2)SC1=S (stereo not shown) [Compound 6, 2-[5-((4-bromo-1,2-dihydro-6,7-dihydroxynaphthalen-3-yl)methylene)-4-oxo-2-thioxothiazolidin-3-yl]-3-methylbutanoic acid] |  |  |  |  | Binding to BCL-XL by NMR [3]: binding had occurred |
| COc1c(C=C2SC(=S)N(C(C(=O)O)C(C)C)C2=O)cc2ccccc2c1OC (stereo not shown) [Compound 7, 2-[5-((1,2-dimethoxynaphthalen-3-yl)methylene)-4-oxo-2-thioxothiazolidin-3-yl]-3-methylbutanoic acid] |  |  |  |  | Binding to BCL-XL by NMR [3]: binding had occurred |
| CC(C)C(C(=O)O)N1C(=O)C(=CC=Cc2ccccc2)SC1=S (stereo not shown) [Compound 9, 3-methyl-2-[4-oxo-5-(3-phenylallylidene)-2-thioxothiazolidin-3-yl]butanoic acid] | 10.6 |  |  |  |  |
| CC(C(=O)O)N1C(=O)C(=CC=Cc2ccccc2)SC1=S (stereo not shown) [Compound 10, 2-[4-oxo-5-(3-phenylallylidene)-2-thioxothiazolidin-3-yl]propanoic acid] | 34.4 |  |  |  |  |
| CC(=Cc1ccccc1)C=C1SC(=S)N(CC(=O)O)C1=O [Compound 11, 2-[5-(2-methyl-3-phenylallylidene)-4-oxo-2-thioxothiazolidin-3-yl]acetic acid] | 11.8 | equal to, or better than, known compounds gossypol and apogossypol | compound 11>compound 5>compound 3=apogossypol=gossypol | gossypol>>>apogossypol>compound 5=compound 3=compound 11 | Binding to BCL-XL by NMR [3]: binding had occurred; Shrinkage of spleen ([4]; dosed orally or intraperitoneally): induced shrinkage of spleen whether dosed orally or intraperitoneally; Weight loss or signs of toxicity via physical exam ([4]; intraperitoneal and oral routes, listed as Epalrestat): no weight loss or signs of toxicity via physical exam; also recorded: qualitatively safer than ApoG; Spleen Weight ([4]; oral gavage, 0.12 mmol/kg daily for 3 days (QDX3), in PBS, spleens removed after 3 days): 193.9 mg; % spleen shrinkage, intraperitoneal versus oral dosing ([4]; route comparison): Intraperitoneal injection induced more % shrinkage than oral dosing |
| Cc1cc2c(C(C)C)c(O)c(O)cc2c(O)c1-c1c(C)cc2c(C(C)C)c(O)c(O)cc2c1O [apogossypol] |  |  | compound 11>compound 5>compound 3=apogossypol=gossypol | gossypol>>>apogossypol>compound 5=compound 3=compound 11 |  |
| Cc1cc2c(C(C)C)c(O)c(O)c(C=O)c2c(O)c1-c1c(C)cc2c(C(C)C)c(O)c(O)c(C=O)c2c1O [gossypol] |  |  |  | gossypol>>>apogossypol>compound 5=compound 3=compound 11 |  |
| apogossypolone |  | not effective at all |  |  |  |
